Reference: patent US20250026761A1, “DIAZABICYCLOOCTANE DERIVATIVES USEFUL AS MATRIX METALLOPROTEINASE INHIBITORS” (VASA THERAPEUTICS SPÓLKA Z OGRANICZONA ODPOWIEDZIALNOSCIA, priority 2021, published 2025)

Tests used:
Format in all cases: biochemical
TACE (ADAM17) = molecular target: T1, TACE (ADAM17) (Homo sapiens, UniProt P78536); assay: TACE fluorometric inhibition assay (Enzo kit); conditions: quenched fluorogenic peptide, ex/em 320 nm/420 nm; read-out: TACE IC50 class
T1 construct: purchased Enzo Life Sciences, Inc. BML-AK310
Method: (§1) The inhibitory activities of the compounds of the invention were assessed in 96-well microplate format using MMP1, MMP2, MMP9 and MMP13 colorimetric assay kits and TACE fluorometric assay kit from Enzo Life Sciences, Inc. The inhibitory effect of the compounds of the invention on ADAM10 activity were evaluated in 96-well microplate format using fluorometric assay from AnaSpec, Inc.
The TACE Fluorometric Drug Discovery Kit (catalog #BML-AK310) is a complete assay system designed to screen ADAM17 (TACE) inhibitors using a quenched fluorogenic peptide: Mca-PLAQAV-Dpa-RSSSR-NH2. Mca fluorescence is quenched by the Dpa group until cleavage by proteases separates the two moieties leading to an increase in Mca fluorescence.
The inhibitory activity of the compounds of the invention against TACE was tested according to the manufacturer's assay protocol and the fluorescence was monitored at excitation/emission wavelengths=320 nm/420 nm using Tecan Infinite® 200 Pro F Nano^+ microplate reader.
(§2) The normalized values were analyzed using GraphPadPrism 9 for Windows (GraphPad Software, San Diego, CA, USA) software by plotting inhibition curves and determining the IC50 values.
(§3) The calculated IC50 values were divided into the following classes: • A: <50 nM; B: 50-1000 nM; C: >1000-10,000 nM; D: >10,000 nM

MMP2 = molecular target: T2, MMP2 (Homo sapiens, UniProt P08253); assay: MMP-2 colorimetric inhibition assay (Enzo kit); conditions: colorimetric thiopeptide substrate, absorbance 415 nm; read-out: MMP2 IC50 class
T2 construct: purchased Enzo Life Sciences, Inc. BML-AK408
Method: as §1
(§4) The MMP-2 Colorimetric Drug Discovery Kit (catalog #BML-AK408) is a complete assay system designed to screen MMP-2 inhibitors using a thiopeptide as a chromogenic substrate (Ac-PLG-[2-mercapto-4-methylpentanoyl]-LG-OC2H5). The MMP cleavage site peptide bond is replaced by a thioester bond in the thiopeptide. Hydrolysis of this bond by an MMP produces a sulfhydryl group, which reacts with DTNB [5,5′-dithiobis(2-nitrobenzoic acid), Ellman's reagent] to form 2-nitro-5-thiobenzoic acid, that can be detected spectrophotometrically.
(§5) The inhibitory activities of the compounds of the invention against MMP1, MMP2, MMP9 and MMP13 were tested according to the manufacturer's assay protocols and the absorbance at 415 nm was monitored using the Tecan Infinite® 200 Pro F Nano^+ microplate reader.
as §2, §3

MMP9 = molecular target: T3, MMP9 (Homo sapiens, UniProt P14780); assay: MMP-9 colorimetric inhibition assay (Enzo kit); conditions: colorimetric thiopeptide substrate, absorbance 415 nm; read-out: MMP9 IC50 class
T3 construct: purchased Enzo Life Sciences, Inc. BML-AK410
Method: as §1
as §4, with “MMP-9” for “MMP-2”, “#BML-AK410)” for “#BML-AK408)”, “screen” for “screen MMP-2”, “inhibitors of matrix metalloproteinase-9” for “inhibitors”
as §5, §2, §3

MMP13 = molecular target: T4, MMP13 (Homo sapiens, UniProt P45452); assay: MMP-13 colorimetric inhibition assay (Enzo kit); conditions: colorimetric thiopeptide substrate, absorbance 415 nm; read-out: MMP13 IC50 class
T4 construct: purchased Enzo Life Sciences, Inc. BML-AK412
Method: as §1
as §4, with “MMP-13” for “MMP-2”, “#BML-AK412)” for “#BML-AK408)”, “screen” for “screen MMP-2”, “inhibitors of matrix metalloproteinase-13” for “inhibitors”
as §5, §2, §3

MMP1 = molecular target: T5, MMP1 (Homo sapiens, UniProt P03956); assay: MMP-1 colorimetric inhibition assay (Enzo kit); conditions: colorimetric thiopeptide substrate, absorbance 415 nm; read-out: MMP1 IC50 class
T5 construct: purchased Enzo Life Sciences, Inc. BML-AK404
T5 sequence (P03956 100-469): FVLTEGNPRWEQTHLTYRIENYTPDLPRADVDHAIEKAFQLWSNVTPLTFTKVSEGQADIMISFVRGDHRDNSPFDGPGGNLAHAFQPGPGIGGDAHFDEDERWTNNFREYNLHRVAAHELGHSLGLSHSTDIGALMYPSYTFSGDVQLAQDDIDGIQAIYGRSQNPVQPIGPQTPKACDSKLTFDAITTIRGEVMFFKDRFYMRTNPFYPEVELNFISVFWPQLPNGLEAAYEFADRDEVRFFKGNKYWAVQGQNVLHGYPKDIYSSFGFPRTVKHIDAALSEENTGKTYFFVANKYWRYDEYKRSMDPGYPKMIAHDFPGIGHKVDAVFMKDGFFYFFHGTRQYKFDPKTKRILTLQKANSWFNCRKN
Method: as §1
as §4, with “MMP-1” for “MMP-2”, “#BML-AK404)” for “#BML-AK408)”, “screen” for “screen MMP-2”, “inhibitors of matrix metalloproteinase-1” for “inhibitors”
as §5, §2, §3

T1 sequence (P78536 223-474 limits assumed): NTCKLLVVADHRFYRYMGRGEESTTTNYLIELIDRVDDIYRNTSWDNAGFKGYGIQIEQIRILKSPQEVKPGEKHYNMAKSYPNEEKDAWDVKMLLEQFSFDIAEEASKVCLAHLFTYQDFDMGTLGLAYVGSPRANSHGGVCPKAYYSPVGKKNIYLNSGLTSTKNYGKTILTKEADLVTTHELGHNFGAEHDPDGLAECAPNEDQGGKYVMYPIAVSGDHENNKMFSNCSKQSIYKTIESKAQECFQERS
T3 sequence (P14780 94-707): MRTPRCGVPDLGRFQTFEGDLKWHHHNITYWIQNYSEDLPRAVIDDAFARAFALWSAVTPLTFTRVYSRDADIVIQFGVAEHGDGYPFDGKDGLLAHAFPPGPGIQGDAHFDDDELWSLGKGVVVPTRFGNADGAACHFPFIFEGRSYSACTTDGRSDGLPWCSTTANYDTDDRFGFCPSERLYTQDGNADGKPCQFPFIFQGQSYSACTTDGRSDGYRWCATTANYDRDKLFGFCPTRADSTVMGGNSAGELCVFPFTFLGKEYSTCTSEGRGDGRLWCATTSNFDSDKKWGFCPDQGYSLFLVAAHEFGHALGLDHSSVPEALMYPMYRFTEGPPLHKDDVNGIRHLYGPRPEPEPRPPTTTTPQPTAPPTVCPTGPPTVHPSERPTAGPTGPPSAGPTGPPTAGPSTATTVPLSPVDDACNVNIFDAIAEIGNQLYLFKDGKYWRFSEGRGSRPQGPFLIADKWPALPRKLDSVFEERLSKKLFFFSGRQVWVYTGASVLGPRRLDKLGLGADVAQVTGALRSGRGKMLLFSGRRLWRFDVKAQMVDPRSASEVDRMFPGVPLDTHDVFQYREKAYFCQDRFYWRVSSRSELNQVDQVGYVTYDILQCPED
T2 sequence (P08253 110-452 limits assumed): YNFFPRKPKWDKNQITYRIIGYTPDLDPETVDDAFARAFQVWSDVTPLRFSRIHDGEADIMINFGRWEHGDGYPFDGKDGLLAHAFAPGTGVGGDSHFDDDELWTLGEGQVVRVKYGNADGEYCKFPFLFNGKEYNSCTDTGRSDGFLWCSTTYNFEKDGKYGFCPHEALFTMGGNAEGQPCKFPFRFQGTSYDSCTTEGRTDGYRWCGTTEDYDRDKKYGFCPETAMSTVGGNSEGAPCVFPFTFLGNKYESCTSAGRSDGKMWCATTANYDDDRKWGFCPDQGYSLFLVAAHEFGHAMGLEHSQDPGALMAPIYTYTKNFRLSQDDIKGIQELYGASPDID

| SMILES | IC50 (TACE (ADAM17)) | IC50 (MMP2) | IC50 (MMP9) | IC50 (MMP13) | IC50 (MMP1) |
| --- | --- | --- | --- | --- | --- |
| COCCOC(=O)N1CC2CCC(C(=O)NO)(C1)N2S(=O)(=O)c1ccc(Oc2ccc(F)cc2)c(F)c1 (stereo not drawn) [Example 5, 2-methoxyethyl 8-((3-fluoro-4-(4-fluorophenoxy)phenyl)sulfonyl)-1-(hydroxycarbamoyl)-3,8-diazabicyclo[3.2.1]octane-3-carboxylate] | > 10000 nM | < 50 nM | < 50 nM | < 50 nM | > 10000 nM |
| COCCOC(=O)N1CC2CCC(C(=O)NO)(C1)N2S(=O)(=O)c1ccc(Oc2ccc(F)cc2)nc1 (stereo not drawn) [Example 13, 2-methoxyethyl 8-((6-(4-fluorophenoxy)pyridin-3-yl)sulfonyl)-1-(hydroxycarbamoyl)-3,8-diazabicyclo[3.2.1]octane-3-carboxylate] | 1000 to 10000 nM | 50 to 1000 nM | < 50 nM | 50 to 1000 nM | 1000 to 10000 nM |
| COCCOC(=O)N1CC2CCC(C(=O)NO)(C1)N2S(=O)(=O)N1CCN(Cc2ccc(F)cc2)CC1 (stereo not drawn) [Example 22, 2-methoxyethyl 8-((4-(4-fluorobenzyl)piperazin-1-yl)sulfonyl)-1-(hydroxycarbamoyl)-3,8-diazabicyclo[3.2.1]octane-3-carboxylate] | > 10000 nM | 1000 to 10000 nM | 1000 to 10000 nM | 1000 to 10000 nM | > 10000 nM |

More lines, now with the values ahead:

| IC50 (TACE (ADAM17)) | IC50 (MMP2) | IC50 (MMP9) | IC50 (MMP13) | IC50 (MMP1) | SMILES |
| --- | --- | --- | --- | --- | --- |
| 1000 to 10000 nM | < 50 nM | < 50 nM | < 50 nM | 1000 to 10000 nM | COCCOC(=O)N1CC2CCC(C(=O)NO)(C1)N2S(=O)(=O)N1CCC(Oc2ccc(Cl)cc2)CC1 (stereo not drawn) [Example 19, 2-methoxyethyl 8-((4-(4-chlorophenoxy)piperidin-1-yl)sulfonyl)-1-(hydroxycarbamoyl)-3,8-diazabicyclo[3.2.1]octane-3-carboxylate] |
| > 10000 nM | 50 to 1000 nM | 50 to 1000 nM | 50 to 1000 nM | > 10000 nM | COCCOC(=O)N1CC2CCC(C(=O)NO)(C1)N2S(=O)(=O)N1CCC(Oc2ccc(F)cn2)CC1 (stereo not drawn) [Example 20, 2-methoxyethyl 8-((4-((5-fluoropyridin-2-yl)oxy)piperidin-1-yl)sulfonyl)-1-(hydroxycarbamoyl)-3,8-diazabicyclo[3.2.1]octane-3-carboxylate] |
| > 10000 nM | < 50 nM | 50 to 1000 nM | 50 to 1000 nM | > 10000 nM | COCCOC(=O)N1CC2CCC(C(=O)NO)(C1)N2S(=O)(=O)N1CCC(Oc2ccncc2)CC1 (stereo not drawn) [Example 21, 2-methoxyethyl 1-(hydroxycarbamoyl)-8-((4-(pyridin-4-yloxy)piperidin-1-yl)sulfonyl)-3,8-diazabicyclo[3.2.1]octane-3-carboxylate] |
